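96-well plates; 48 h exposure; 5 concentrations. Endpoints by linear interpolation between flanking doses. Not reached: highest tested concentration assigned. Abbreviation: GI50, concentration required for 50% inhibition of growth.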 Activity calls are given as the source filed them. No stated cut-off is given here; in the data, active = GI50 up to about 1.1 µM and inactive = higher.
What was measured:
Assay in all cases: NCI tumour cell line growth inhibition, 48 h
786-0 = test system: 786-0
A498 = test system: A498
A549 = test system: A549
ACHN = test system: ACHN
BT-549 = test system: BT-549
CAKI-1 = test system: CAKI-1
CCRF-CEM = test system: CCRF-CEM
COLO 205 = test system: COLO 205
DU-145 = test system: DU-145
EKVX = test system: EKVX
HCC 2998 = test system: HCC 2998
HCT-116 = test system: HCT-116
HCT-15 = test system: HCT-15
HOP-62 = test system: HOP-62
HT-29 = test system: HT-29
Hs-578T = test system: Hs-578T
IGROV-1 = test system: IGROV-1
K562 = test system: K562
KM12 = test system: KM12
LOX IMVI = test system: LOX IMVI
M14 = test system: M14
MCF7 = test system: MCF7
MDA-MB-231 = test system: MDA-MB-231
MDA-MB-435 = test system: MDA-MB-435
MOLT-4 = test system: MOLT-4
Malme-3M = test system: Malme-3M
NCI-H226 = test system: NCI-H226
NCI-H460 = test system: NCI-H460
NCI-H522 = test system: NCI-H522
NCI/ADR-RES = test system: NCI/ADR-RES
OVCAR-3 = test system: OVCAR-3
OVCAR-4 = test system: OVCAR-4
OVCAR-5 = test system: OVCAR-5
OVCAR-8 = test system: OVCAR-8
PC-3 = test system: PC-3
RPMI-8226 = test system: RPMI-8226
RXF 393 = test system: RXF 393
SF-268 = test system: SF-268
SF-295 = test system: SF-295
SK-MEL-28 = test system: SK-MEL-28
SK-MEL-2 = test system: SK-MEL-2
SK-MEL-5 = test system: SK-MEL-5
SK-OV-3 = test system: SK-OV-3
SN12C = test system: SN12C
SNB-19 = test system: SNB-19
SNB-75 = test system: SNB-75
SR = test system: SR
SW-620 = test system: SW-620
T47D = test system: T47D
TK-10 = test system: TK-10
U-251 = test system: U-251
UACC-257 = test system: UACC-257
UACC-62 = test system: UACC-62
UO-31 = test system: UO-31
HOP-92 = test system: HOP-92
NCI-H23 = test system: NCI-H23
SF-539 = test system: SF-539
HL-60 = test system: HL-60

Question: NC(=O)NNc1nc(-c2ccccc2)cs1 was tested. Which GI50 (786-0) did it give?
Answer: > 100 µM (inactive)

Question: What about the GI50 (A498) of the same compound?
Answer: > 100 µM (inactive)

Question: What about the GI50 (A549) of the same compound?
Answer: > 100 µM (inactive)

Question: And the GI50 (ACHN)?
Answer: > 100 µM (inactive)

Question: What about the GI50 (BT-549) of the same compound?
Answer: > 100 µM (inactive)

Question: And the GI50 (CAKI-1)?
Answer: > 100 µM (inactive)

Question: And the GI50 (CCRF-CEM)?
Answer: 47 µM (inactive)

Question: And the GI50 (COLO 205)?
Answer: > 100 µM (inactive)

Question: What about the GI50 (DU-145) of the same compound?
Answer: > 100 µM (inactive)

Question: And the GI50 (EKVX)?
Answer: > 100 µM (inactive)

Question: And the GI50 (HCC 2998)?
Answer: > 100 µM (inactive)

Question: What about the GI50 (HCT-116) of the same compound?
Answer: > 100 µM (inactive)

Question: What about the GI50 (HCT-15) of the same compound?
Answer: > 100 µM

Question: And the GI50 (HOP-62)?
Answer: > 100 µM (inactive)

Question: What about the GI50 (HT-29) of the same compound?
Answer: > 100 µM (inactive)

Question: What about the GI50 (Hs-578T) of the same compound?
Answer: > 100 µM (inactive)

Question: And the GI50 (IGROV-1)?
Answer: > 100 µM (inactive)

Question: And the GI50 (K562)?
Answer: > 100 µM (inactive)

Question: And the GI50 (KM12)?
Answer: > 100 µM (inactive)

Question: What about the GI50 (LOX IMVI) of the same compound?
Answer: > 100 µM (inactive)

Question: What about the GI50 (M14) of the same compound?
Answer: > 100 µM (inactive)

Question: And the GI50 (MCF7)?
Answer: > 100 µM (inactive)

Question: What about the GI50 (MDA-MB-231) of the same compound?
Answer: > 100 µM (inactive)

Question: And the GI50 (MDA-MB-435)?
Answer: > 100 µM (inactive)

Question: And the GI50 (MOLT-4)?
Answer: > 100 µM (inactive)

Question: What about the GI50 (Malme-3M) of the same compound?
Answer: > 100 µM (inactive)

Question: What about the GI50 (NCI-H226) of the same compound?
Answer: > 100 µM (inactive)

Question: And the GI50 (NCI-H460)?
Answer: > 100 µM (inactive)

Question: And the GI50 (NCI-H522)?
Answer: > 100 µM (inactive)

Question: And the GI50 (NCI/ADR-RES)?
Answer: > 100 µM (inactive)

Question: What about the GI50 (OVCAR-3) of the same compound?
Answer: > 100 µM (inactive)

Question: And the GI50 (OVCAR-4)?
Answer: > 100 µM (inactive)

Question: And the GI50 (OVCAR-5)?
Answer: > 100 µM (inactive)

Question: And the GI50 (OVCAR-8)?
Answer: > 100 µM (inactive)

Question: What about the GI50 (PC-3) of the same compound?
Answer: > 100 µM (inactive)

Question: And the GI50 (RPMI-8226)?
Answer: > 100 µM (inactive)

Question: And the GI50 (RXF 393)?
Answer: > 100 µM (inactive)

Question: What about the GI50 (SF-268) of the same compound?
Answer: > 100 µM (inactive)

Question: And the GI50 (SF-295)?
Answer: > 100 µM (inactive)

Question: What about the GI50 (SK-MEL-28) of the same compound?
Answer: > 100 µM (inactive)

Question: What about the GI50 (SK-MEL-2) of the same compound?
Answer: > 100 µM (inactive)

Question: What about the GI50 (SK-MEL-5) of the same compound?
Answer: > 100 µM (inactive)

Question: And the GI50 (SK-OV-3)?
Answer: > 100 µM (inactive)

Question: What about the GI50 (SN12C) of the same compound?
Answer: > 100 µM (inactive)

Question: What about the GI50 (SNB-19) of the same compound?
Answer: > 100 µM (inactive)

Question: And the GI50 (SNB-75)?
Answer: > 100 µM (inactive)

Question: And the GI50 (SR)?
Answer: > 100 µM (inactive)

Question: And the GI50 (SW-620)?
Answer: > 100 µM (inactive)

Question: And the GI50 (T47D)?
Answer: > 100 µM (inactive)

Question: What about the GI50 (TK-10) of the same compound?
Answer: > 100 µM (inactive)

Question: What about the GI50 (U-251) of the same compound?
Answer: > 100 µM (inactive)

Question: And the GI50 (UACC-257)?
Answer: > 100 µM (inactive)

Question: What about the GI50 (UACC-62) of the same compound?
Answer: > 100 µM (inactive)

Question: What about the GI50 (UO-31) of the same compound?
Answer: > 100 µM (inactive)

Question: Which results are given for CCCCCCCCCCCCCCCCOP(=O)([O-])OCC[N+](C)(C)C1CC(C)(C)N(O)C(C)(C)C1?
Answer: GI50 (786-0): > 100 µM (inactive); GI50 (A498): > 100 µM (inactive); GI50 (A549): > 100 µM (inactive); GI50 (ACHN): > 100 µM (inactive); GI50 (BT-549): > 100 µM (inactive); GI50 (CAKI-1): > 100 µM (inactive); GI50 (COLO 205): > 100 µM (inactive); GI50 (DU-145): > 100 µM (inactive); GI50 (EKVX): > 100 µM (inactive); GI50 (HCC 2998): > 100 µM (inactive); GI50 (HCT-116): > 100 µM (inactive); GI50 (HCT-15): > 100 µM; GI50 (HOP-62): > 100 µM (inactive); GI50 (HOP-92): > 100 µM (inactive); GI50 (HT-29): > 100 µM (inactive); GI50 (Hs-578T): > 100 µM (inactive); GI50 (KM12): > 100 µM (inactive); GI50 (M14): > 100 µM (inactive); GI50 (MCF7): > 100 µM (inactive); GI50 (MDA-MB-231): > 100 µM (inactive); GI50 (MDA-MB-435): > 100 µM (inactive); GI50 (Malme-3M): > 100 µM (inactive); GI50 (NCI-H226): > 100 µM (inactive); GI50 (NCI-H23): > 100 µM (inactive); GI50 (NCI-H460): > 100 µM (inactive); GI50 (NCI-H522): > 100 µM (inactive); GI50 (NCI/ADR-RES): > 100 µM (inactive); GI50 (OVCAR-3): > 100 µM (inactive); GI50 (OVCAR-4): > 100 µM (inactive); GI50 (OVCAR-5): > 100 µM (inactive); GI50 (OVCAR-8): > 100 µM (inactive); GI50 (PC-3): > 100 µM (inactive); GI50 (RXF 393): > 100 µM (inactive); GI50 (SF-268): > 100 µM (inactive); GI50 (SF-295): > 100 µM (inactive); GI50 (SF-539): > 100 µM (inactive); GI50 (SK-MEL-2): > 100 µM (inactive); GI50 (SK-MEL-5): > 100 µM (inactive); GI50 (SK-OV-3): > 100 µM (inactive); GI50 (SNB-19): > 100 µM (inactive); GI50 (SNB-75): > 100 µM (inactive); GI50 (SR): > 100 µM (inactive); GI50 (SW-620): > 100 µM (inactive); GI50 (T47D): > 100 µM (inactive); GI50 (TK-10): > 100 µM (inactive); GI50 (U-251): > 100 µM (inactive); GI50 (UACC-257): > 100 µM (inactive); GI50 (UACC-62): > 100 µM (inactive); GI50 (UO-31): > 100 µM (inactive)

Question: What does the source list for Cc1oc2nc(N(C)C)n3cnnc3c2c1C?
Answer: GI50 (786-0): > 100 µM (inactive); GI50 (A498): > 100 µM (inactive); GI50 (A549): > 100 µM (inactive); GI50 (ACHN): > 100 µM (inactive); GI50 (BT-549): > 100 µM (inactive); GI50 (CAKI-1): > 100 µM (inactive); GI50 (CCRF-CEM): > 100 µM (inactive); GI50 (COLO 205): > 100 µM (inactive); GI50 (DU-145): > 100 µM (inactive); GI50 (EKVX): > 100 µM (inactive); GI50 (HCC 2998): > 100 µM (inactive); GI50 (HCT-116): > 100 µM (inactive); GI50 (HCT-15): > 100 µM; GI50 (HL-60): > 100 µM (inactive); GI50 (HOP-62): > 100 µM (inactive); GI50 (HOP-92): > 100 µM (inactive); GI50 (HT-29): > 100 µM (inactive); GI50 (Hs-578T): > 100 µM (inactive); GI50 (IGROV-1): > 100 µM (inactive); GI50 (K562): > 100 µM (inactive); GI50 (KM12): > 100 µM (inactive); GI50 (M14): > 100 µM (inactive); GI50 (MCF7): > 100 µM (inactive); GI50 (MDA-MB-231): > 100 µM (inactive); GI50 (MDA-MB-435): > 100 µM (inactive); GI50 (MOLT-4): > 100 µM (inactive); GI50 (NCI-H226): > 100 µM (inactive); GI50 (NCI-H23): > 100 µM (inactive); GI50 (NCI-H460): > 100 µM (inactive); GI50 (NCI-H522): > 100 µM (inactive); GI50 (NCI/ADR-RES): > 100 µM (inactive); GI50 (OVCAR-3): > 100 µM (inactive); GI50 (OVCAR-4): > 100 µM (inactive); GI50 (OVCAR-5): > 100 µM (inactive); GI50 (OVCAR-8): > 100 µM (inactive); GI50 (PC-3): > 100 µM (inactive); GI50 (RPMI-8226): > 100 µM (inactive); GI50 (RXF 393): > 100 µM (inactive); GI50 (SF-268): > 100 µM (inactive); GI50 (SF-295): > 100 µM (inactive); GI50 (SF-539): > 100 µM (inactive); GI50 (SK-MEL-28): > 100 µM (inactive); GI50 (SK-MEL-2): > 100 µM (inactive); GI50 (SK-MEL-5): > 100 µM (inactive); GI50 (SK-OV-3): > 100 µM (inactive); GI50 (SN12C): > 100 µM (inactive); GI50 (SNB-19): > 100 µM (inactive); GI50 (SNB-75): 50.6 µM (inactive); GI50 (SR): > 100 µM (inactive); GI50 (SW-620): > 100 µM (inactive); GI50 (T47D): > 100 µM (inactive); GI50 (TK-10): > 100 µM (inactive); GI50 (U-251): > 100 µM (inactive); GI50 (UACC-257): > 100 µM (inactive); GI50 (UACC-62): > 100 µM (inactive); GI50 (UO-31): > 100 µM (inactive)

— ChEMBL document CHEMBL1201862, “PubChem BioAssay data set” (2004)
